Patent publication US11390580B2, “Anti-fungals targeting the synthesis of fungal shingolipids” (THE RESEARCH FOUNDATION FOR THE STATE UNIVERSITY OF NEW YORK, priority 2014, dated 2022)
≈ marks a conversion by molar mass, not a printed value. Where “and” joins values, the source holds several entries; their conditions need not be identical. Identical values can stand only once. Entries after “also recorded” stand apart in the source; their conditions may differ. Like-named read-outs stand apart in the source and are kept apart here.

Tests used:
[1] = test system: Cryptococcus neoformans; assay: In vitro susceptibility testing (MIC); assay type: cell-based
[2] = test system: Cryptococcus gattii; assay: In vitro susceptibility testing (MIC); assay type: cell-based
[3] = test system: Candida albicans; assay: In vitro susceptibility testing (MIC); assay type: cell-based
[4] = test system: Aspergillus fumigatus; assay: In vitro susceptibility testing (MIC); assay type: cell-based
[5] = test system: Rhizopus oryzae; assay: In vitro susceptibility testing (MIC); assay type: cell-based
[6] = test system: C. neoformans; assay: In vitro killing assay (time-kill, CFU); assay type: cell-based, Cryptococcus neoformans
Procedure: At the illustrated time points, aliquots were taken and diluted and 100 μL was plated onto yeast peptone dextrose (YPD) plates. YPD plates were incubated in a 30° C. incubator and, after 72 hours, colony forming units (CFU) were counted and recorded.

[7] = test system: A549 cell line; assay: In vitro toxicity; assay type: cell-based
[8] = test system: Candida albicans SC-5314; assay: Animal studies for candidiasis (intravenous infection); assay type: in vivo, mice
Procedure: For survival studies, 8-week old CBA/J female mice (Jackson Laboratory) were used. Eight mice per treatment or control group were used. Mice were infected by intravenous inoculation of 100 μL containing 1×10^5 cells of Candida albicans SC-5314 strain. […] Untreated mice, received 100 μL of PBS/0.4% DMSO. Mice were feed ad-libitum and monitored closely for sign of discomfort. At the end of the survival study, tissue burden culture was performed in mice that survived the infection. Mice were sacrificed and their organs were extracted and homogenized in 10 ml sterile PBS using homogenizer. Organ homogenates were diluted 10 times in PBS, and 100 μL was plated on YPD agar plates and incubated at 30° C. for 72 hours for CFU count.

[9] = Pharmacokinetics of BHBM; assay type: in vivo, mice
Procedure: The mice from each group were sacrificed and blood samples were collected at pre-dose and 0.5, 1, 2, 4, 8, 12, and 24 post-administration into K2EDTA containing tubes. The samples were centrifuged immediately and plasma was collected and stored at −80° C. until analysis. Plasma samples were extracted using methylene chloride. […] After mixing, 1 ml of methylene chloride was added and the samples were vortex mixed for 30 seconds followed by centrifugation for 5 minutes. […] The residue was reconstituted in 100 μL acetonitrile: water (50:50) solution, mixed and transferred to mass spec vials. […] The mobile phase consisted of water: acetonitrile with 0.1% formic acid (50:50) ran at a flow rate of 200 μL/min. Aliquots of 5 μL were analyzed using LTQ-FT liquid chromatography/tandem mass spectrometer (LC/MS/MS) with electrospray source in the positive ion mode (ThermoFisher Scientific, Waltham, Mass.). The retention time of BHBM was 5.7 mins. The lower limit of quantification (LLOQ) was 10 ng/ml. Systemic exposure of BHBM in mice was quantified by calculating the AUC of the drug from pre-dose to the end of the dosing interval (AUC0-t) using the linear trapezoidal rule by non-compartmental analysis employing Phoenix winNonlin 6.3 (Pharsight Corp, Mountain View, Calif.). The elimination half-life (t1/2) was calculated as 0.693/λz, where λz is the terminal elimination rate constant. Bioavailability of IP route was calculated.

[10] = test system: Smt1; assay: In vitro Smt1 activity; assay type: biochemical, C. neoformans
[11] = test system: Sld8; assay: In vitro Sld8 activity; assay type: biochemical, C. neoformans
[12] = test system: C. neoformans sphingolipids; assay: Sphingolipid levels by TLC and lipid mass spectrometry; assay type: cell-based, Cryptococcus neoformans
Procedure: Labeling fungal cells. […] Samples without drug were included as control. Before lipid extraction, lipid internal standards (C17 ceramide and C17 sphingosine) were added. Lipids were then extracted following the methods of […] and Bligh and Dyer and one fourth of the sample was aliquoted for determination of the inorganic phosphate. The remainder of the sample was subjected to base hydrolysis and then analyzed using LC/MS. Results were normalized with the inorganic phosphate levels.

[13] = test system: C. neoformans secreted vesicles; assay: Vesicle secretion measured by vesicular sterols; assay type: cell-based, Cryptococcus neoformans
From the text: WF, white field; NBD-Cer, NBD-ceramide.

[14] = test system: Candida spp; assay: In vitro susceptibility testing; assay type: cell-based; conditions: most Candida spp examined
[15] = test system: P. murina
[16] = In vitro toxicity, MTT assay; conditions: mouse, J774.16 macrophage cells
[17] = In vivo toxicity in uninfected mice
[18] = test system: synthesis of GlcCer in C. neoformans cells; assay: In vivo labeling with 3H palmitate, TLC of GlcCer; conditions: 3H palmitate labeling
[19] = C3H/HeN, mouse, in vivo, ip, 0.8 mg/kg
[20] = C3H/HeN, mouse, in vivo, ip, 1.6 mg/kg
[21] = TLC, confirmed by mass spectrometry

With `Cc1ccccc1C(=O)NN=Cc1ccc(O)c(Br)c1` [BHBM, N′-(3-bromo-4-hydroxybenzylidene)-2-methylbenzohydrazide] the “in vitro activity” value [1] was “good in vitro activity”, the MIC range ([1]; 4 MDP Lab strains, clinical isolates resistant to fluconazole) was 1 to 2 µg/mL and the MIC range ([1]; 8 MDP Lab strains, clinical isolates sensitive to fluconazole) was 0.5 to 2 µg/mL. For the same compound, the MIC range ([1]; 13 Fungus Testing Lab strains) was 0.25 to 8 µg/mL, the MFC ([1]; Cryptococcus neoformans, read-out: MFC (minimum fungicidal concentration)) was 4 µg/mL (≈ 12 µM) and the “BHBM 72 Hr 50%” value ([1]; MIC, FTL strains) was 8 and >16 and 16. The “sensitivity of Fluconazole-resistant strains” value ([1]; all Fluconazole-resistant C. neoformans strains) was “sensitive”, the “in vitro activity” value [2] was “good in vitro activity” and the MIC range ([2]; 3 MDP Lab strains) was 0.5 to 1 µg/mL. For the same compound, the MIC range ([2]; 10 Fungus Testing Lab strains) was 0.5 to 2 µg/mL, the “BHBM 72 Hr 50%” value ([2]; MIC, FTL strains) was 16 and >16 and 8 and the “in vitro activity” value [3] was “not active”. It also gave an MIC range ([3]; 3 Fungus Testing Lab strains) greater than 32 µg/mL, an MIC range ([3]; 5 MDP Lab strains) greater than 32 µg/mL and an MIC range ([4]; 1 MDP Lab strain) of 8 µg/mL (≈ 24 µM). For the same compound, the MIC range ([4]; 3 Fungus Testing Lab strains) was greater than 16 µg/mL, the MIC ([4]; Aspergillus fumigatus, read-out: MIC (moderately active)) was 8 to 16 µg/mL (≈ 24 to 48 µM) and the “in vitro activity” value [5] was “good in vitro activity”. For the same compound, the MIC range ([5]; 3 Fungus Testing Lab strains) was 2 µg/mL (≈ 6 µM), the “incubation required to kill about 50% of the cells” value [6] was “at least 72 hours” and the type of killing ([6]; time-kill assay) was “concentration-dependent killing”. The toxicity [7] was “slight to moderate toxicity”, the mice alive ([8]; 1.2 mg/kg/day intraperitoneally, after 21 days of infection) was 62.5% and the “clearance of infection (tissue burden)” value ([8]; day 21, surviving treated mice) was “able to clear C. albicans infection”. For the same compound, the bioavailability [9, 19] was 93.6%, the half-life [9, 19] was 0.79 h and the bioavailability [9, 20] was 100.33%. It also gave a half-life [9, 20] of 0.84 h, a half-life ([9]; C3H/HeN, mouse, in vivo, iv, 1.6 mg/kg) of 1.24 h and a bioavailability ([9]; C3H/HeN, mouse, plasma, 0.8 mg/kg, immunocompetent mice, IP low dose, read-out: bioavailability) of 93.6%. For the same compound, the half-life ([9]; C3H/HeN, mouse, plasma, intraperitoneal, 1.6 mg/kg) was roughly 1.4 h, the “systemic exposure (AUC0-t and Cmax)” value ([9]; IP administration, compared to normal group) was “higher in immunosuppressed/infected group” and the bioavailability ([9]; immunocompetent mice, IP high dose) was 90.59%. It also gave a half-life ([9]; immunocompetent mice, IP high dose (1.6 mg/kg)) of 1.43 h, a half-life ([9]; immunocompetent mice, IP low dose (0.8 mg/kg)) of 1.70 h and a half-life ([9]; immunocompetent mice, IV high dose (1.6 mg/kg)) of 1.03 h. The “in vitro activity of Smt1” value [10] was “does not inhibit”, the “in vitro activity of Sld8” value [11] was “does not inhibit” and the sphingosine-1-phosphate level ([12]; TLC) was “increased”. The GlcCer level [12, 21] was “decreased”, the dihydroceramide level [12, 21] was “increased” and the sphingosine level [12, 21] was “increased; also recorded: accumulation of sphingosines”. For the same compound, the “level of IPC” value ([12]; data not shown) was “does not decrease the level of IPC”, the “secreted vesicles measured by sterol content” value [13] was “marked reductions of secreted vesicles” and the in vitro susceptibility [14] was “resistant”. The “improvement in survival, low dose vs vehicle treated negative controls” value ([15]; 0.8 mg/Kg/twice a day, 13 days) was “the difference was not significant”, the “survival, low dose vs high dose” value ([15]; 0.8 or 1.6 mg/Kg/twice a day, 13 days) was “low dose mice showed improved survival over the high dose mice” and the “number of asci and nuclei in lung homogenates vs negative control” value ([15]; 13 days of treatment) was “No significant differences”. The EC50 at 48 h [16] was 50 µg/mL (≈ 150 µM), the “liver Aspartate aminotransferase (AST)” value ([17]; 1.2 mg/kg/day intraperitoneally for 60 days) was 125±75 U/L and the “other blood parameters for liver and kidney function” value ([17]; 60 days) was “normal”. The “histological analysis of organs vs untreated uninfected mice” value ([17]; lungs, brains, kidney, spleen, liver, 60 days) was “no difference”, the “appearance, weight, physical activity and behavior” value ([17]; treated daily for 60 days) was “appeared normal” and the “inhibition of the synthesis of GlcCer” value [18] was “significantly inhibit the synthesis of GlcCer”.
